{"source": "PubChem BioAssay (NCI)", "experiment_in_all_cases": "growth of human tumour cells (NCI), 48 h", "key": {"[1]": {"tested_on": "RPMI-8226 leukemia"}, "[2]": {"tested_on": "UACC-257 melanoma"}, "[3]": {"tested_on": "HOP-92 NSCLC"}, "[4]": {"tested_on": "HOP-62 NSCLC"}, "[5]": {"tested_on": "A549 NSCLC"}, "[6]": {"tested_on": "EKVX NSCLC"}, "[7]": {"tested_on": "OVCAR-5 ovarian"}, "[8]": {"tested_on": "SK-OV-3 ovarian"}, "[9]": {"tested_on": "TK-10 renal"}, "[10]": {"tested_on": "KM12 colon"}, "[11]": {"tested_on": "BT-549 breast"}, "[12]": {"tested_on": "K-562 leukemia"}, "[13]": {"tested_on": "HCC-2998 colon"}, "[14]": {"tested_on": "U251 CNS"}, "[15]": {"tested_on": "SW-620 colon"}, "[16]": {"tested_on": "NCI-H23 lung"}, "[17]": {"tested_on": "M19-MEL melanoma"}, "[18]": {"tested_on": "HOP-18 NSCLC"}, "[19]": {"tested_on": "DMS 273 small cell lung"}, "[20]": {"tested_on": "SNB-78 CNS"}}, "note": "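The compound was tested at five concentrations on cells cultured in 96-well plates, with a 48-hour exposure period. TGI marks complete inhibition of growth.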"}
{"smiles": "O=C1OC[C@@H]2[C@@H](O)CCCCCN12", "values": [{"measurement": "TGI", "setting": "[1]", "value": "> 100", "unit": "µM"}, {"measurement": "TGI", "setting": "[2]", "value": "> 100", "unit": "µM"}, {"measurement": "TGI", "setting": "[3]", "value": "> 100", "unit": "µM"}, {"measurement": "TGI", "setting": "[4]", "value": "> 100", "unit": "µM"}, {"measurement": "TGI", "setting": "[5]", "value": "> 100", "unit": "µM"}, {"measurement": "TGI", "setting": "[6]", "value": "> 100", "unit": "µM"}, {"measurement": "TGI", "setting": "[7]", "value": "> 100", "unit": "µM"}, {"measurement": "TGI", "setting": "[8]", "value": "> 100", "unit": "µM"}, {"measurement": "TGI", "setting": "[9]", "value": "> 100", "unit": "µM"}, {"measurement": "TGI", "setting": "[10]", "value": "> 100", "unit": "µM"}, {"measurement": "TGI", "setting": "[11]", "value": "> 100", "unit": "µM"}, {"measurement": "TGI", "setting": "[12]", "value": "> 100", "unit": "µM"}, {"measurement": "TGI", "setting": "[13]", "value": "> 100", "unit": "µM"}, {"measurement": "TGI", "setting": "[14]", "value": "> 100", "unit": "µM"}, {"measurement": "TGI", "setting": "[15]", "value": "> 100", "unit": "µM"}]}
{"smiles": "CCOc1ccc2nc(-c3ccc(O)cc3)sc2c1", "values": [{"measurement": "TGI", "setting": "[1]", "value": 2.63, "unit": "µM"}, {"measurement": "TGI", "setting": "[2]", "value": 64.5, "unit": "µM"}, {"measurement": "TGI", "setting": "[5]", "value": "> 100", "unit": "µM"}, {"measurement": "TGI", "setting": "[6]", "value": 55.2, "unit": "µM"}, {"measurement": "TGI", "setting": "[7]", "value": "> 100", "unit": "µM"}, {"measurement": "TGI", "setting": "[8]", "value": 94.3, "unit": "µM"}, {"measurement": "TGI", "setting": "[9]", "value": "> 100", "unit": "µM"}, {"measurement": "TGI", "setting": "[10]", "value": "> 100", "unit": "µM"}, {"measurement": "TGI", "setting": "[16]", "value": "> 100", "unit": "µM"}, {"measurement": "TGI", "setting": "[11]", "value": "> 100", "unit": "µM"}, {"measurement": "TGI", "setting": "[12]", "value": "> 100", "unit": "µM"}, {"measurement": "TGI", "setting": "[14]", "value": "> 100", "unit": "µM"}, {"measurement": "TGI", "setting": "[15]", "value": "> 100", "unit": "µM"}]}
{"smiles": "N/C(=N\\N=C/c1ccccc1O)NO", "values": [{"measurement": "TGI", "setting": "[1]", "value": 27, "unit": "µM"}, {"measurement": "TGI", "setting": "[2]", "value": "> 100", "unit": "µM"}, {"measurement": "TGI", "setting": "[3]", "value": "> 67.6", "unit": "µM"}, {"measurement": "TGI", "setting": "[17]", "value": "> 100", "unit": "µM"}, {"measurement": "TGI", "setting": "[4]", "value": "> 60.8", "unit": "µM"}, {"measurement": "TGI", "setting": "[5]", "value": "> 100", "unit": "µM"}, {"measurement": "TGI", "setting": "[6]", "value": 71.4, "unit": "µM"}, {"measurement": "TGI", "setting": "[7]", "value": "> 100", "unit": "µM"}, {"measurement": "TGI", "setting": "[18]", "value": "> 100", "unit": "µM"}, {"measurement": "TGI", "setting": "[8]", "value": "> 87.1", "unit": "µM"}, {"measurement": "TGI", "setting": "[10]", "value": "> 100", "unit": "µM"}, {"measurement": "TGI", "setting": "[16]", "value": 53.9, "unit": "µM"}, {"measurement": "TGI", "setting": "[12]", "value": "> 77.6", "unit": "µM"}, {"measurement": "TGI", "setting": "[13]", "value": 25.6, "unit": "µM"}, {"measurement": "TGI", "setting": "[19]", "value": 28.7, "unit": "µM"}, {"measurement": "TGI", "setting": "[14]", "value": "> 100", "unit": "µM"}, {"measurement": "TGI", "setting": "[15]", "value": "> 100", "unit": "µM"}, {"measurement": "TGI", "setting": "[20]", "value": "> 96.6", "unit": "µM"}]}
{"smiles": "O=C1OC(c2ccccc2)=N/C1=C\\c1cccnc1", "values": [{"measurement": "TGI", "setting": "[1]", "value": "> 100", "unit": "µM"}, {"measurement": "TGI", "setting": "[2]", "value": "> 100", "unit": "µM"}, {"measurement": "TGI", "setting": "[3]", "value": "> 100", "unit": "µM"}, {"measurement": "TGI", "setting": "[4]", "value": "> 100", "unit": "µM"}, {"measurement": "TGI", "setting": "[5]", "value": "> 100", "unit": "µM"}, {"measurement": "TGI", "setting": "[6]", "value": "> 100", "unit": "µM"}, {"measurement": "TGI", "setting": "[7]", "value": "> 100", "unit": "µM"}, {"measurement": "TGI", "setting": "[8]", "value": "> 100", "unit": "µM"}, {"measurement": "TGI", "setting": "[9]", "value": "> 100", "unit": "µM"}, {"measurement": "TGI", "setting": "[10]", "value": "> 100", "unit": "µM"}, {"measurement": "TGI", "setting": "[16]", "value": "> 100", "unit": "µM"}, {"measurement": "TGI", "setting": "[11]", "value": "> 100", "unit": "µM"}, {"measurement": "TGI", "setting": "[12]", "value": "> 100", "unit": "µM"}, {"measurement": "TGI", "setting": "[13]", "value": "> 100", "unit": "µM"}, {"measurement": "TGI", "setting": "[14]", "value": "> 100", "unit": "µM"}, {"measurement": "TGI", "setting": "[15]", "value": "> 100", "unit": "µM"}]}
{"smiles": "Nc1ncnc2c1ncn2C1OC(COP(=O)(O)O)C(O)C1O", "note": "(stereo not drawn)", "values": [{"measurement": "TGI", "setting": "[1]", "value": "> 50", "unit": "µM"}, {"measurement": "TGI", "setting": "[2]", "value": "> 50", "unit": "µM"}, {"measurement": "TGI", "setting": "[3]", "value": "> 46.6", "unit": "µM"}, {"measurement": "TGI", "setting": "[17]", "value": "> 50", "unit": "µM"}, {"measurement": "TGI", "setting": "[4]", "value": "> 50", "unit": "µM"}, {"measurement": "TGI", "setting": "[5]", "value": "> 50", "unit": "µM"}, {"measurement": "TGI", "setting": "[6]", "value": "> 50", "unit": "µM"}, {"measurement": "TGI", "setting": "[7]", "value": "> 50", "unit": "µM"}, {"measurement": "TGI", "setting": "[18]", "value": "> 50", "unit": "µM"}, {"measurement": "TGI", "setting": "[8]", "value": "> 50", "unit": "µM"}, {"measurement": "TGI", "setting": "[10]", "value": "> 50", "unit": "µM"}, {"measurement": "TGI", "setting": "[16]", "value": "> 50", "unit": "µM"}, {"measurement": "TGI", "setting": "[12]", "value": "> 50", "unit": "µM"}, {"measurement": "TGI", "setting": "[13]", "value": "> 50", "unit": "µM"}, {"measurement": "TGI", "setting": "[19]", "value": "> 50", "unit": "µM"}, {"measurement": "TGI", "setting": "[14]", "value": "> 50", "unit": "µM"}, {"measurement": "TGI", "setting": "[15]", "value": "> 50", "unit": "µM"}, {"measurement": "TGI", "setting": "[20]", "value": "> 50", "unit": "µM"}]}
{"smiles": "CC1(C)CC23C4COC(=O)C2CCC1C3CC4=O", "note": "(stereo not drawn)", "values": [{"measurement": "TGI", "setting": "[1]", "value": 48.6, "unit": "µM"}, {"measurement": "TGI", "setting": "[2]", "value": 26.3, "unit": "µM"}, {"measurement": "TGI", "setting": "[3]", "value": 29.3, "unit": "µM"}, {"measurement": "TGI", "setting": "[17]", "value": 40.7, "unit": "µM"}, {"measurement": "TGI", "setting": "[4]", "value": 59.3, "unit": "µM"}, {"measurement": "TGI", "setting": "[5]", "value": 70.3, "unit": "µM"}, {"measurement": "TGI", "setting": "[6]", "value": 83.8, "unit": "µM"}, {"measurement": "TGI", "setting": "[7]", "value": 72.4, "unit": "µM"}, {"measurement": "TGI", "setting": "[18]", "value": 5.11, "unit": "µM"}, {"measurement": "TGI", "setting": "[8]", "value": 104, "unit": "µM"}, {"measurement": "TGI", "setting": "[10]", "value": 27.2, "unit": "µM"}, {"measurement": "TGI", "setting": "[16]", "value": 10.8, "unit": "µM"}, {"measurement": "TGI", "setting": "[12]", "value": 123, "unit": "µM"}, {"measurement": "TGI", "setting": "[13]", "value": 37.2, "unit": "µM"}, {"measurement": "TGI", "setting": "[19]", "value": 71, "unit": "µM"}, {"measurement": "TGI", "setting": "[14]", "value": 50.7, "unit": "µM"}, {"measurement": "TGI", "setting": "[15]", "value": 10.2, "unit": "µM"}, {"measurement": "TGI", "setting": "[20]", "value": 73.4, "unit": "µM"}]}
